Source: patent publication US20230031406A1, “COMPOUNDS AND COMPOSITIONS FOR TREATING CONDITIONS ASSOCIATED WITH NLRP ACTIVITY” (Novartis AG, priority 2018, published 2023)
Where two headings read alike, the source gives them in different places. Each block holds one compound with its values, some of them ahead of it.

Tested on: PMA-differentiated THP-1 cells
Test: IL-1β production in PMA-differentiated THP-1 cells stimulated with gramicidin (hTHP-1 assay containing 2% fetal bovine serum; Procedures 1 and 2)
Format: cell-based, human
Procedure, shortened: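 Secreted IL-1β, read by HTRF, after gramicidin challenge (5 μM, 2 h) of THP-1 cells differentiated with PMA (20 ng/ml, 16-18 h) and plated at 50,000 cells/well in 2% FBS medium. Compounds, 0.0017-100 μM final with 0.37% DMSO, were added 1 h before stimulation.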

[1] = Table B2, 2% fetal bovine serum, class symbols, read-out: hTHP-1 IC50
[2] = Homo sapiens, THP-1, Table B1, 2% fetal bovine serum, numeric bounds, read-out: Average IC50 of compounds in hTHP-1 assay: hTHP-1 IC50
[3] = Homo sapiens, THP-1, Table B2, 2% fetal bovine serum, class symbols, read-out: hTHP-1 IC50
[4] = Table B1, 2% fetal bovine serum, class symbols, read-out: Average IC50 of compounds in hTHP-1 assay: hTHP-1 IC50
[5] = Table B3, hTHP-1 assay, 2% fetal bovine serum, class symbols, read-out: IC50

Compound: CC(C)(O)c1ncc(S(N)(=O)=NC(=O)Nc2cc(-c3ccccc3)nc3c2CCC3)s1 (single isomer, unassigned) [Compound 142a, (R) or (S)-2-(2-hydroxy-propan-2-yl)-N′-((2-phenyl-6,7-dihydro-5H-cyclopenta[b]pyridin-4-yl)carbamoyl)thiazole-5-sulfonimidamide]
IC50 [2]: > 30 µM

Compound: Cc1c(C(F)(F)F)nc2c(c1NC(=O)N=[S@@](N)(=O)c1cnc(C(C)(C)O)s1)CCC2C (stereo partly shown) [Compound 608d]
IC50 [3]: 1 to 5 µM

Compound: CC(C)c1ncc(F)c(C(C)C)c1NC(=O)N=S(N)(=O)c1cnc(C(C)(C)O)s1 (single isomer, unassigned) [Compound 164a, (R) or (S)-N′-((5-fluoro-2,4-diisopropylpyridin-3-yl)carbamoyl)-2-(2-hydroxypropan-2-yl)thiazole-5-sulfonimidamide]
IC50 [4]: 1 to 5 µM

Compound: CC1CCc2c1nc1c(c2NC(=O)N=S(N)(=O)c2cc(C(C)(C)O)cs2)CCC1C (single isomer, unassigned) [Compound 131c, (S,R,S) and (S,S,R) or (S,R,R) or (S,S,S)-N′-((3,5-dimethyl-1,2,3,5,6,7-hexa-hydrodicyclo-penta[b,e]pyridin-8-yl)carbamoyl)-4-(2-hy-droxypropan-2-yl)thiophene-2-sulfonimidamide]
IC50 [4]: 5 to 30 µM

Compound: CCc1c(C(F)(F)F)nc2c(c1NC(=O)N=S(N)(=O)c1sc(C(C)(C)O)cc1F)CCC2 (single isomer, unassigned) [Compound 611b, (R) or (S)-N′-((3-ethyl-2-(trifluoromethyl)-6,7-dihydro-5H-cyclopenta[b]pyridin-4-yl)carbamoyl)-3-fluoro-5-(2-hydroxypropan-2-yl)thiophene-2-sulfonimidamide]
IC50 [1]: 0.2 to 1 µM

Compound: Cc1sc(S(N)(=O)=NC(=O)Nc2c3c(nc4c2CCC4(C)C)CCC3)cc1C(C)(C)O (single isomer, unassigned) [Compound 169b, (R) or (S)-N′-((3,3-dimethyl-1,2,3,5,6,7-hexahydro-dicyclopenta[b,e]pyridin-8-yl)carbamoyl)-4-(2-hydroxypropan-2-yl)-5-mehtylthiophene-2-sulfonimidamide]
IC50 [4]: 0.04 to 0.2 µM

Compound: Cc1nc(C)c(C)c(NC(=O)N=S(N)(=O)c2cnc(C(C)(C)O)s2)c1C (single isomer, unassigned) [Compound 133b, (S) or (R)-2-(2-hydroxypropan-2-yl)-N′-((2,3,5,6-tetramethylpyridin-4-yl)carbamoyl)thiazole-5-sulfonimidamide]
IC50 (Table B1, 2% fetal bovine serum, numeric bounds, read-out: Average IC50 of compounds in hTHP-1 assay: hTHP-1 IC50): > 30 µM

Compound: Cc1nc2c(c(NC(=O)N=S(N)(=O)c3cc(C(C)(C)O)cs3)c1C(C)C)CCC2 (single isomer, unassigned) [Compound 622b, (R) or (S)-4-(2-Hydroxypropan-2-yl)-N′-((3-isopropyl-2-methyl-6,7-dihydro-5H-cyclopenta[b]pyridin-4-yl)carbamoyl) thiophene-2-sulfonimidamide]
IC50 [3]: 5 to 30 µM

Compound: CC(C)(O)c1cc(F)c(S(N)(=O)=NC(=O)Nc2c3c(nc4c2CCC42CC2)CCC3)s1 (stereo not shown) [Compound 101, 3-fluoro-5-(2-hydroxypropan-2-yl)-N′-((1′,5′,6′,7′-tetrahydro-2′H-spiro[cyclopropane-1,3′-dicyclopenta[b,e]pyridin]-8′-yl)carbamoyl)thiophene-2-sulfonimidamide]
IC50 (Homo sapiens, THP-1, Table B1, 2% fetal bovine serum, class symbols, read-out: Average IC50 of compounds in hTHP-1 assay: hTHP-1 IC50): 0.04 to 0.2 µM

Compound: CC1CCc2c1nc1c(c2NC(=O)N=S(N)(=O)c2cnn(C(C)C)c2)CCC1 (single isomer, unassigned) [Compound 171b, (R, S) and (R, R) or (S, R) and (S, S)-1-Isopropyl-N′-((3-methyl-1,2,3,5,6,7-hexahydrodicyclopenta [b,e]pyridin-8-yl)carbamoyl)-1H-pyrazole-4-sulfonimidamide]
IC50 [1]: 5 to 30 µM

Compound: CC(C)c1cc(NC(=O)N=S(N)(=O)c2cc(C(C)(C)O)cs2)c2c(n1)CCC2 (single isomer, unassigned) [Compound 182a, (S) or (R)-4-(2-Hydroxypropan-2-yl)-N′-((2-isopropyl-6,7-dihydro-5H-cyclopenta[b]pyridin-4-yl)carbamoyl) thiophene-2-sulfonimidamide]
IC50 (Homo sapiens, THP-1, Table B2, 2% fetal bovine serum, numeric bounds, read-out: hTHP-1 IC50): > 30 µM

Compound: CC1CCc2c1nc1c(c2NC(=O)N=S(N)(=O)c2sc(C(C)(C)O)nc2CO)CCC1 (stereo not shown) [Compound 168, 4-(hydroxymethyl)-2-(2-hydroxypropan-2-yl)-N′-((3-methyl-1,2,3,5,6,7-hexahydrodicyclopenta[b,e]pyridin-8-yl)carbamoyl)thiazole-5-sulfonimidamide]
IC50 [4]: 0.2 to 1 µM

Compound: CC(C)(O)c1ncc(S(N)(=O)=NC(=O)Nc2c3c(nc4c2CCC4F)CCC3)s1 (single isomer, unassigned) [Compound 183c, (R,S) or (R,R)-N′-((3-fluoro-1,2,3,5,6,7-hexahydrodicyclo-penta[b,e]pyridin-8-yl)carbamoyl)-2-(2-hydroxypropan-2-yl)thiazole-5-sulfonimidamide]
IC50 [4]: 5 to 30 µM

Compound: C[C@@H]1CCc2c1nc1c(c2NC(=O)N=S(N)(=O)c2ccn(C)n2)CCC1 (stereo partly drawn) [Compound 639, 1-Methyl-N′-(((R)-3-methyl-1,2,3,5,6,7-hexahydrodicyclopenta[b,e]pyridin-8-yl)carbamoyl)-1H-pyrazole-3-sulfonimidamide]
IC50 [3]: 1 to 5 µM

Compound: Cc1nc(C)c(C)c(NC(=O)N=S(N)(=O)c2cnc(C(C)(C)O)s2)c1C (stereo not shown) [Compound 133, 2-(2-hydroxypropan-2-yl)-N′-((2,3,5,6,-tetramethylpyridin-4-yl)carbamoyl)thiazole-5-sulfonimidamide]
IC50 [2]: > 14 µM

Further lines, results first:

IC50 [1]: 0.2 to 1 µM
Compound: Cc1c(C(F)(F)F)nc2c(c1NC(=O)N=S(N)(=O)c1cnc(C(C)(C)O)s1)CCC2 (single isomer, unassigned) [Compound 661a, (R) or (S)-2-(2-Hydroxypropan-2-yl)-N′-((3-methyl-2-(trifluoromethyl)-6,7-dihydro-5H-cyclopenta[b]pyridin-4-yl)carbamoyl)thiazole-5-sulfonimidamide]

IC50 [3]: 0.2 to 1 µM
Compound: Cc1c(C(F)(F)F)nc2c(c1NC(=O)N=S(N)(=O)c1nn(C(F)F)cc1F)CCC2 (stereo not shown) [Compound 717]

IC50 [5]: 1 to 5 µM
Compound: CCn1cc(F)c(S(N)(=O)=NC(=O)Nc2c3c(nc4c2CC[C@H]4C)CCC3)n1 (single isomer, unassigned) [Example 670, (S) or (R)-1-ethyl-4-fluoro-N′-(((R)-3-methyl-1,2,3,5,6,7-hexahydrodicyclopenta[b,e]pyridin-8-yl)carbamoyl)-1H-pyrazole-3-sulfonimidamide]

IC50 [5]: 0.008 to 0.04 µM
Compound: CCn1cc(F)c(S(N)(=O)=NC(=O)Nc2c3c(nc(C4CC4)c2C2CC2)CCC3)n1 (single isomer, unassigned) [Example 707, (R) or (S)-N′-((2,3-dicyclopropyl-6,7-dihydro-5H-cyclopenta[b]pyridin-4-yl)carbamoyl)-1-ethyl-4-fluoro-1H-pyrazole-3-sulfonimidamide]

IC50 (Homo sapiens, THP-1, Table B4, 2% fetal bovine serum, class symbols, read-out: hTHP-1 IC50): 1 to 5 µM
Compound: Cc1c(C(F)(F)F)nc(C(F)(F)F)c(C)c1NC(=O)N=S(N)(=O)c1cc(C(C)(C)O)cs1 (stereo not shown) [Example 738, N′-((3,5-dimethyl-2,6-bis(trifluoromethyl)pyridin-4-yl)carbamoyl)-4-(2-hydroxypropan-2-yl)thiophene-2-sulfonimidamide]

IC50 [1]: 5 to 30 µM
Compound: Cc1c(C2CC2)nc2c(c1NC(=O)N=S(N)(=O)c1cc(C(C)(C)O)cs1)CCC2C (single isomer, unassigned) [Compound 656c, (S, R) or (S, S) or (R, S) or (R, R)-N′-((2-Cyclopropyl-3,7-dimethyl-6,7-dihydro-5H-cyclopenta[b]pyridin-4-yl)carbamoyl)-4-(2-hydroxypropan-2-yl)thiophene-2-sulfonimidamide]

IC50 [1]: 5 to 30 µM
Compound: CC(C)(O)c1cncc(S(N)(=O)=NC(=O)Nc2c3c(nc4c2CCC4(C)C)CCC3)c1 (single isomer, unassigned) [Compound 684b, (S) or (R)-N′-((3,3-dimethyl-1,2,3,5,6,7-hexahydrodicyclopenta [b,e]pyridin-8-yl)carbamoyl)-5-(2-hydroxypropan-2-yl)pyridine-3-sulfonimidamide]

IC50 (Homo sapiens, THP-1, Table B3, hTHP-1 assay, 2% fetal bovine serum, class symbols, read-out: IC50): 0.2 to 1 µM
Compound: Cc1c(C(F)(F)F)nc2c(c1NC(=O)N=[S@@](N)(=O)c1cnc(C(C)(C)O)s1)CC(C)C2 (stereo partly drawn) [Example 576, (R)-N′-((3,6-dimethyl-2-(trifluoromethyl)-6,7-dihydro-5H-cyclopenta[b]pyridin-4-yl)carbamoyl)-2-(2-hydroxypropan-2-yl)thiazole-5-sulfonimidamide]

IC50 [5]: 5 to 30 µM
Compound: NS(=O)(=NC(=O)Nc1c2c(nc3c1CCC31CC1)CCC2)c1ccn(CCO)n1 (single isomer, unassigned) [Example 648, (S) or (R)-1-(2-hydroxyethyl)-N′-((1′,5′,6′,7′-tetrahydro-2′H-spiro[cyclopropane-1,3′-dicyclopenta[b,e]pyridin]-8′-yl)carbamoyl)-1H-pyrazole-3-sulfonimidamide]

IC50 (Homo sapiens, THP-1, read-out: hTHP-1 IC50 in 2% FBS, hTHP-1 assay containing 2% fetal bovine serum, Table B5): 0.2 to 1 µM
Compound: CC(C)n1cc(F)c(S(N)(=O)=NC(=O)Nc2c3c(nc(C(F)(F)F)c2C2CC2)CCC3)n1 (stereo not shown) [Compound 1104, N′-((3-cyclopropyl-2-(trifluoromethyl)-6,7-dihydro-5H-cyclopenta[b]pyridin-4-yl)carbamoyl)-4-fluoro-1-isopropyl-1H-pyrazole-3-sulfonimidamide]
